The test system of this test is HL-60 tumor cell line. As to the kind of experiment: HL-60 Differentiation Assay (NBT reduction). It is filed as cell-based. Conditions: 4 days incubation; for % Differentiated cells: NBT/TPA. Here is the method: HL-60 Differentiation Assay:
The HL-60 tumor cell line was originally derived from a patient with promyelocytic leukemia. The cells are maintained in suspension and diluted to 200,000 cells/ml in 5 ml of suspension media. Compounds were tested at four concentrations in duplicate flasks. Control flasks were supplemented with vehicle alone at the highest concentration such as 0.1% ethanol. Flasks are incubated upright for 4 days in 5% CO2 at 37°C. On day 4, a 1 ml aliquot of cells was centrifuged, the media removed and the cells resuspended in a 0.2 ml of solution of nitroblue tetrazolium/phorbol 12 myristate 13-acetate (NBT/TPA). The cells are suspended and incubated at 37°C for 30 min. prior to transferring to ice. An aliquot is removed and a total of 200 cells is counted using a hemocytometer. Cells without pigmented granules are judged to be undifferentiated while those containing blue black formazan (indicating conversion of NBT) granules were scored as differentiated. Results are expressed as percent differentiated cells by calculating the ratio of the number of dark cells per total number of cells counted.

With `CC(CC#CC(O)(C(F)(F)F)C(F)(F)F)C1=CCC2C(=CC=C3CC(O)CC(O)C3)CCCC12C` (stereo not shown) [Compound D, 1,25-dihydroxy-16-ene-23-yne-26,27-hexafluoro-19-nor-cholecalciferol], for the setting “Homo sapiens, 96 h, HL-60 differentiation, read-out: ED50 (the source's name)”, the EC50 was 0.8 nM. Moreover, the “% Differentiated cells” value by setting is: (concentration 10^-8 (unit not given)) 89.5%; (concentration 10^-9 (unit not given)) 56.5%; (concentration 10^-10 (unit not given)) 1.5%.

The values above are taken from patent EP0580968B1, “Vitamin D3 fluorinated analogs” (F. HOFFMANN-LA ROCHE AG, priority 1992, dated 1994).
